Source: patent publication US20030044413A1, “Methods of limiting apoptosis of cells” (Regents of the University of Minnesota, priority 1998, published 2003)

What was measured:
[1] = tested on: Bax; assay: Western blot, liver of bile acid fed rats: Bax; assay type: in vivo, rat; settings: DCA feeding
Protocol: Animals and Diets. Male 160-175 g Sprague-Dawley rats (Sprague-Dawley, Indianapolis, Ind.), were maintained on a 12 h light-dark cycle and fed standard laboratory chow ad libitum for 3 days. The animals were then transferred to metabolic cages and fed diets of standard laboratory chow supplemented with either no bile acid or 0.4% (wt/wt) DCA, 0.4% UDCA, or a combination of DCA+UDCA (Bio-Serv, Frenchtown, N.J.). On day 10, the animals were sacrificed by exsanguination under ether anesthesia between 9 a.m. and 11 a.m. The livers were removed, rinsed in normal saline, and flash-frozen in liquid nitrogen until western blot analyses of apoptosis-related proteins were performed. All animals received humane care in compliance with the Guide for the Care and Use of Laboratory Animals, prepared by the National Academy of Sciences (NIH Publication No. 86-23, revised 1985).
Western Blot Analysis. Cytoplasmic proteins were isolated from rat liver tissue as described previously (Trembley et al., Cell Growth & Differ., 7, 903-916 (1996)). […] Cytoplasmic and mitochondrial protein concentrations were determined using the Bio-Rad protein assay (Bio-Rad Laboratories). […]
Densitometry. […] Quantitation of the autoradiograms was performed using the NIH Image 1.4 densitometric analysis program.

[2] = tested on: hepatocytes, HuH-7, Hep G2 and Saos-2 cells; assay: FACS analysis of ΔΨm and ROS, summary over all cell types; assay type: cell-based; settings: coadministration of UDCA with the inducers, range over cell types
Protocol: A ΔΨm and ROS measurement. ΔΨm and ROS production were measured by FACScan (Becton Dickinson) analysis. Freshly isolated rat hepatocytes were cultured for 3 h as described above and then incubated with William's E medium supplemented with either 100 μM DCA, 100 μM UDCA, equal molar amounts of both, or no bile acid (control), for 6 h. Rat hepatocytes were also cultured with either 1% ethanol, 100 μM UDCA, ethanol+UDCA, or no addition (control) for 4 h. HuH-7 cells, Hep G2 cells, and human osteogenic sarcoma Saos-2 cells were incubated with TGF-β1, anti-Fas antibody or okadaic acid, respectively, for 48 h under the same conditions as outlined above. For combination studies, cells were pretreated with UDCA or hyodeoxycholic acid for 60 min prior to addition of DCA, ethanol, TGF-β1, anti-Fas antibody or okadaic acid. Aliquots of 1.0×10^6 cells were incubated for 15 min at 37° C. with 50 nM 3,3′-dihexyloxacarbocyanine iodide [DiOC6(3)], 2 μM dihydroethidium (HE), or 5 μM 2′,7′-dichlorofluorescin diacetate (H2DCFDA; Molecular Probes, Inc. Eugene, Oreg.) and analyzed by cytofluorometry (Cathcart et al., Anal. Biochem., 134, 111-116 (1983); Zamzami et al., J. Exp. Med., 181, 1661-1672 (1 995); Carter et al., J. Leukocyte Biol., 55, 253-258 (1994)).

[3] = tested on: astrocytes; assay: Unconjugated bilirubin-induced apoptosis in astrocytes; assay type: cell-based, rat; settings: coincubation of UCB with UDCA
[4] = Nuclear bile acid concentration in livers of fed rats; assay type: in vivo, rat

| SMILES | increase in mitochondrial-associated Bax [1] | decrease in superoxide anion production [2] | inhibition of increase in other ROS [2] | inhibition of ΔΨm disruption [2] | inhibition of apoptosis [3] | share of the total nuclear bile acid concentration ([4]; UDCA feeding) | concentration in nuclei relative to cytoplasmic levels ([4]; livers from control and DCA fed rats) |
| --- | --- | --- | --- | --- | --- | --- | --- |
| C[C@H](CCC(=O)O)[C@H]1CC[C@H]2[C@@H]3CC[C@@H]4C[C@H](O)CC[C@]4(C)[C@H]3C[C@H](O)[C@]12C [DCA, deoxycholic acid] | 4.5 fold |  |  |  |  |  |  |
| C[C@H](CCC(=O)O)[C@H]1CC[C@H]2[C@@H]3[C@@H](O)C[C@@H]4C[C@H](O)CC[C@]4(C)[C@H]3CC[C@]12C [UDCA, ursodeoxycholic acid] |  | 55-93% | 39-65% | 21-63% | over 50% | 91.4% | > 20 fold |
